Consider three compounds from US6291671A, “Process for producing drug complexes” (Daiichi Pharmaceutical Co., Ltd., priority 1996, dated 2001).

Read-outs that look alike come from different tables or passages of the source. * marks the point of attachment. Exatecan = CC[C@@]1(O)C(=O)OCc2c1cc1n(c2=O)Cc2c-1nc1cc(F)c(C)c3c1c2[C@@H](N*)CC3

For data set [1] the following is noted: cited from earlier work.
The subject of data set [2] is Meth A tumor-bearing mice. The data set is described as follows: Antitumor activity, Meth A tumor-bearing mice, single administration on day 7. Type of data set: in vivo, mouse. The procedure:
(§1) Meth A tumor-bearing mice were prepared (7 mice per group) by subcutaneously transplanting 1×10^6 mouse fibrosarcoma Meth A cells into the right inguinal regions of BALB/c male mice (7-week old). On day 7, the drug complex of Example 9 dissolved in distilled water for injection was injected in the tail vein of the Meth A tumor-bearing mice every 4 days 4 times. On day 21 after the transplantation, tumor masses were excised and weighed to calculate the inhibition rate of tumor growth according to the following equation: inhibition rate of tumor growth (%)=[1-(average tumor weight of the group administered with the test sample/average tumor weight of control group)]×100.
Meth A tumor-bearing mice (6 mice per group) were prepared according to a similar manner to that of Example 11 and the antitumor activity was compared to that obtained by single administration of the drug complexes of Examples 8 and 9 once on day 7.
Meth A tumor-bearing mice (6 mice per group) were prepared according to a similar manner to that of Example 11 and the antitumor activity of the drug complex of Example 15 was examined by single administration in a similar manner to that of Example 12.
Meth A tumor-bearing mice (6 mice per group) were prepared according to a similar manner to that of Example 1, and the antitumor activity of the drug complex of Example 41 was examined in the cases of single administration in a similar manner to that of Example 12, and its antitumor activity was compared to that of the drug compound, per se.
Meth A tumor-bearing mice (6 mice per group) were prepared according to a similar manner to that of Example 11, and the antitumor activity was examined according to a similar method to that in Example 12 by single administration of the drug complexes of Examples 29, 43, and 44, respectively.

Data set [3] deals with Meth A tumor-bearing mice. Briefly: Antitumor activity, Meth A tumor-bearing mice, i.v. every 4 days 4 times. The data set is classed as in vivo, mouse. The settings on record: for Inhibition rate: calculated based on the drug compound, day 21. The procedure:
as §1

Data set [4] concerns Meth A tumor-bearing mice. The data set is described as follows: Pharmacokinetics of the drug complex in Meth A tumor-bearing mice. The data set is classed as in vivo, mouse. The settings on record: 10 mg/kg single, calculated as the drug compound. The method, then: Meth A tumor-bearing mice were prepared according to a similar manner to that of Example 11, the drug complex of Example 15 was given as single administration in a similar manner to that of Example 12 (10 mg/kg: calculated as the drug compound), and the change of the drug complex concentration in various tissues was determined.

Another data set deals with SC-6 human gastric tumor. Briefly: Antitumor activity, SC-6 tumor-bearing nude mice, single i.v. administration. The settings on record: for Inhibition rate / Numbers of died mice/mice used: calculated based on the drug compound. The data set is classed as in vivo, human tumor in nude mice. The procedure: (§2) SC-6 tumor-bearing nude mice (5 mice per group) were prepared by subcutaneously transplanting a piece of SC-6 human gastric tumor block into the right inguinal regions of nude mice (13AI,B/c-nu/nu, male). On day 27 after the transplantation, the drug complex of Example 15 dissolved in distilled water for injection was given as a single intravenous administration and its antitumor activity was compared to that of the drug compound, per se.

A further data set deals with Human lung cancer QG-90. Briefly: Antitumor activity, human lung cancer QG-90-bearing nude mice, single i.v. administration. Type of data set: in vivo, human tumor in nude mice. The settings on record: for Inhibition rate / Numbers of died mice/mice used: calculated based on the drug compound. The method, then: as §2
Human lung cancer QG-90-bearing nude mice (5 mice per group) were prepared according to a similar manner to that of Example 53. On day 16 after the transplantaion, the drug complex of Example 15 dissolved in distilled water for injection was given as a single intravenous administration and its antitumor activity was compared to that of the drug compound, per se.

[5] abbreviates: single administration, compared to the drug compound, per se.
Setting [6] is: Example 11, every 4 days 4 times.
Setting [7] is: single i.v., compared to the drug compound, per se.

Take `CC[C@@]1(O)C(=O)OCc2c1cc1n(c2=O)Cc2c-1nc1cc(F)c(C)c3c1c2[C@@H](N)CC3` [DX-8951, (1S,9S)-1-amino-9-ethyl-5-fluoro-2,3-dihydro-9-hydroxy-4-methyl-1H,12H-benzo[de]pyrano[3',4':6,7]indolizino[1,2-b]quinoline-10,13(9H,15H)-dione, reference compound]: the lactone ring equilibrium entry in data set [1] (acidic aqueous medium, approximately at pH 3) is given as “compound whose lactone ring is closed”; in data set [1] (basic aqueous medium, approximately at pH 10) it was “compound whose lactone ring is opened”. Further, the Inhibition rate in data set [2] (Example 12 (Table 3), 20 mg/kg single) stood at 59%; in data set [2] (Example 12 (Table 3), 60 mg/kg single), 77%.

As to “Carboxymethyldextran Polyalcohol-Gly-Gly-Phe-Gly-NH--A' (A--NH2 =DX-8951) [Example 9] ({carboxymethyldextran polyalcohol}-GGFG-Exatecan; also: N-terminus linked to carboxymethyldextran polyalcohol, C-terminus amide-linked to drug residue A' (DX-8951))”, the Inhibition rate in data set [2] (Example 12 (Table 3), 2.5 mg/kg single, calculated based on the drug compound) is recorded as 87%; in data set [2] (Example 12 (Table 3), 5 mg/kg single, calculated based on the drug compound), 98%; in data set [3] (0.35 × 4 mg/kg), 41%; in data set [3] (0.7 × 4 mg/kg), 59%; in data set [3] (1.4 × 4 mg/kg), 94%. Besides, the “antitumor activity (in words)” value is given as “(Polysaccharide derivative)-Gly-Gly-Phe-Gly-NH--A'> (Polysaccharide derivative)-Gly-Gly-Gly-Phe-NH--A'> the drug compound, per se” in data set [2] (setting [5]) and “remarkably enhanced antitumor activity compared to the drug compound, per se” in data set [3] (setting [6]). Moreover, the “toxicity (weight loss)” value in data set [3] (setting [6]) is listed as “no toxicity (weight loss)”.

As for “Carboxymethyldextran Polyalcohol-Gly-Gly-Phe-Gly-NH--A' (A--NH2 =DX-8951) [Example 15] ({carboxymethyldextran polyalcohol}-GGFG-Exatecan; also: N-terminus linked to carboxymethyldextran polyalcohol, C-terminus amide-linked to drug residue A' (DX-8951))”, the “distribution in tumor tissues” value in data set [4] was “high distribution in tumor tissues”. Moreover, the “retention of blood level” value in data set [4] is “extremely long retention of blood level”. Moreover, in data set [4], the “tumor selectivity against liver and small intestine” value was “high tumor selectivity against liver and small intestine”. Besides, the Inhibition rate is 71% in the data set with SC-6 human gastric tumor (2 mg/kg single i.v.); 100% with SC-6 human gastric tumor (8 mg/kg single i.v.); 97% in the data set with Human lung cancer QG-90 (1.75 mg/kg single i.v.); 98% in the data set with Human lung cancer QG-90 (7 mg/kg single i.v.); 83% in data set [2] (Example 52 (table 4), 1.25 mg/kg single, calculated based on the drug compound); 95% in data set [2] (Example 52 (table 4), 2.5 mg/kg single, calculated based on the drug compound). The Inhibition rate is recorded as 99% in data set [2] (Example 52 (table 4), 5 mg/kg single, calculated based on the drug compound) and 100% in data set [2] (Example 52 (table 4), 10 mg/kg single, calculated based on the drug compound). Also, the “Numbers of died mice/mice used” value in the data set on SC-6 human gastric tumor (2 mg/kg single i.v.), in the data set on SC-6 human gastric tumor (8 mg/kg single i.v.), in the data set with Human lung cancer QG-90 (1.75 mg/kg single i.v.) and with Human lung cancer QG-90 (7 mg/kg single i.v.) was 0/5 throughout. Besides, in the data set with SC-6 human gastric tumor (single i.v.), the “death due to toxicity (in words)” value is listed as “no death due to toxicity”. Further, the “antitumor activity (in words)” value with SC-6 human gastric tumor (setting [7]) is reported as “higher antitumor activity compared to the drug compound, per se”; in the data set on Human lung cancer QG-90 (setting [7]), “remarkably enhanced antitumor activity”; in data set [2] (setting [5]) it was “remarkably enhanced antitumor activity”. Also, the “effective dose-range (in words)” value (in the data set with Human lung cancer QG-90 (setting [7]); in data set [2] (setting [5])) was “broader effective dose-range” each time.
